Experimental data taken from patent publication US10626118B2, “Pyrrolopyrimidine crystal for preparing JAK inhibitor” (Chia Tai Tianqing Pharmaceutical Group Co., Ltd., priority 2016, dated 2020).
Read-outs that look alike come from different tables or passages of the source.

Experiments:
[1] = Stability test, open clean container at 60° C.; assay type: physicochemical
Protocol: The crystal A obtained in Method 1 of Example 2 and the crystal B obtained in Example 3 were placed in an open clean container at 60° C., and sampled for detection on days 5 and 10, respectively.

[2] = rats, 30 mg/kg PO; FDA pharmacology review; cited from earlier work
[3] = dogs, Male, FDA pharmacology review, cited from earlier work

| Content (%) ([1]; Day 0) | Total Impurity (%) ([1]; Day 0) | Content (%) ([1]; Day 5) | Total Impurity (%) ([1]; Day 5) | Content (%) ([1]; Day 10) | Total Impurity (%) ([1]; Day 10) | Compound | AUCINFobs [2] | AUCINF_obs ([3]; IV 5 mg/kg) | AUCINF_obs ([3]; PO 10 mg/kg) |
| --- | --- | --- | --- | --- | --- | --- | --- | --- | --- |
| 99.72% | 0.28% | 99.71% | 0.29% | 99.73% | 0.27% | N#CC[C@H](C1CCCC1)n1cc(-c2ncnc3[nH]ccc23)c(N)n1 [Crystal A of compound represented by formula I] [(3R)-3-[3-amino-4-(7H-pyrrolo[2,3-d]pyrimidin-4-yl)-1H-pyrazol-1-yl]-3-cyclopentyl-propionitrile] |  |  |  |
| 99.23% | 0.77% | 99.23% | 0.77% | 99.22% | 0.78% | N#CC[C@H](C1CCCC1)n1cc(-c2ncnc3[nH]ccc23)c(N)n1 [Crystal B of compound represented by formula I] [(3R)-3-[3-amino-4-(7H-pyrrolo[2,3-d]pyrimidin-4-yl)-1H-pyrazol-1-yl]-3-cyclopentyl-propionitrile] |  |  |  |
|  |  |  |  |  |  | N#CC[C@H](C1CCCC1)n1cc(-c2ncnc3[nH]ccc23)cn1 [Ruxolitinib] | 1345 ng·h/mL | 13776 ng·h/mL | 15716 ng·h/mL |
